Reference: ChEMBL document CHEMBL3351918 (Bioorg Med Chem, 2014)
pIC50: −log10 of the molar value. Active and inactive are the calls of the source. The calls are words filed in the database; no cut-off is given here.

Assays:
Butyrylcholinesterase = Butyrylcholinesterase (Rattus norvegicus, UniProt Q9JKC1); assay: Inhibition of BChE in rat serum using butyrylthiocholine iodide substrate incubated for 15 mins by UV spectroscopy based Ellman's method; type: cell-free
Acetylcholinesterase [1] = biological target: T1, Acetylcholinesterase (Rattus norvegicus, UniProt P37136); assay: Inhibition of AChE in rat cortex homogenates using acetylthiocholine iodide substrate incubated for 15 mins by UV spectroscopy based Ellman's method
T1 sequence (P37136 whole entry): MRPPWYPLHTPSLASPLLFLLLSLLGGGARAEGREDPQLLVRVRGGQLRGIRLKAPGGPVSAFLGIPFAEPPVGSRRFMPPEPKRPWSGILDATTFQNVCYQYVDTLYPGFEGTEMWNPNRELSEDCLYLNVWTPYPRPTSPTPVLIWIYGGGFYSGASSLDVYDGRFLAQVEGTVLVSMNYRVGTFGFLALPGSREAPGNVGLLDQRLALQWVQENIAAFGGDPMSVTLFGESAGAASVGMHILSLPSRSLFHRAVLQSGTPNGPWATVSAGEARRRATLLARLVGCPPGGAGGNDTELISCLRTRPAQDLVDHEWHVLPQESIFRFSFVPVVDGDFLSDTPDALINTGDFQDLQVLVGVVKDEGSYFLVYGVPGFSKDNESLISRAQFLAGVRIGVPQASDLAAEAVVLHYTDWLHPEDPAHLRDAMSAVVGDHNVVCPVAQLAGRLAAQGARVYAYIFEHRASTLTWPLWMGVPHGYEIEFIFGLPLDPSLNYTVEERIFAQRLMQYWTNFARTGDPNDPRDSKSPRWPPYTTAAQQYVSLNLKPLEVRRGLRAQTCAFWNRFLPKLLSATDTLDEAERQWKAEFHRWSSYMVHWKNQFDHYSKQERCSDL

[2] = biological target: Amyloid-beta precursor protein (Homo sapiens) (UniProt P05067); assay: Inhibition of Amyloid beta (1 to 40) (unknown origin) assessed as self-mediated fibril formation at 50 uM incubated for 48 hrs by transmission electron microscopy
[3] = biological target: Butyrylcholinesterase (Rattus norvegicus) (UniProt Q9JKC1); assay: Potency index, ratio of IC50 for rivastigmine to IC50 for test compound against BChE in rat serum using butyrylthiocholine iodide substrate incubated for 15 mins by UV spectroscopy based Ellman's method; type: cell-free
[4] = Antioxidant activity assessed as ABTS radical cation scavenging activity; type: physicochemical
Acetylcholinesterase [5] = biological target: T1, Acetylcholinesterase; assay: Prodrug activation in rat cortex homogenates assessed as AChE-mediated 2-methoxy-4-(piperidin-1-ylmethyl)phenol formation at 1 mmol after 24 hrs by HPLC-MS method; conditions: tissue homogenate
Acetylcholinesterase [6] = biological target: T1, Acetylcholinesterase; assay: Retention time in rat cortex homogenates at 1 mmol after 24 hrs by HPLC-MS method; type: ADME; conditions: tissue homogenate
Acetylcholinesterase [7] = biological target: T1, Acetylcholinesterase; assay: Prodrug activation in rat cortex homogenates treated with 1 mmol 2-Methoxy-4-(piperidin-1-ylmethyl)phenyl dimethylcarbamate assessed as AChE-mediated compound formation after 24 hrs by HPLC-MS method; type: ADME; conditions: tissue homogenate
[8] = Metal chelating activity assessed as inhibition of copper-mediated Amyloid beta (1 to 40) aggregation at 50 uM after 48 hrs by transmission electron microscopy; type: physicochemical

Butyrylcholinesterase, sequence (Q9JKC1 whole entry): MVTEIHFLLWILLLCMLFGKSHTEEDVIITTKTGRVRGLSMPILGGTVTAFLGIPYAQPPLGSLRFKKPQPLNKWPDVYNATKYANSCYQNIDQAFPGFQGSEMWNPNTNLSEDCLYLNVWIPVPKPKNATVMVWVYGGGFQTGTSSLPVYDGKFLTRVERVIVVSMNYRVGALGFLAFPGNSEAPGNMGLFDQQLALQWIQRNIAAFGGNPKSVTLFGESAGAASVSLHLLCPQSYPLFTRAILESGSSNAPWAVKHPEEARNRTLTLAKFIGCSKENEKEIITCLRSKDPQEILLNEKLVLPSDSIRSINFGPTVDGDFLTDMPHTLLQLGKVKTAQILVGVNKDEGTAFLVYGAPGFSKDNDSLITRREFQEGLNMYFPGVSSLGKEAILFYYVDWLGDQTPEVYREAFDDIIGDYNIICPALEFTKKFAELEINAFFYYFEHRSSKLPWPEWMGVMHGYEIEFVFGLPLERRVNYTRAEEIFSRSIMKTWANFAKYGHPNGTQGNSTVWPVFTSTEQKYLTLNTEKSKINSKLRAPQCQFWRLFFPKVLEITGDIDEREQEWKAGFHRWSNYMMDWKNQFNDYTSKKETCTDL
Amyloid-beta precursor protein (Homo sapiens), sequence (P05067 whole entry): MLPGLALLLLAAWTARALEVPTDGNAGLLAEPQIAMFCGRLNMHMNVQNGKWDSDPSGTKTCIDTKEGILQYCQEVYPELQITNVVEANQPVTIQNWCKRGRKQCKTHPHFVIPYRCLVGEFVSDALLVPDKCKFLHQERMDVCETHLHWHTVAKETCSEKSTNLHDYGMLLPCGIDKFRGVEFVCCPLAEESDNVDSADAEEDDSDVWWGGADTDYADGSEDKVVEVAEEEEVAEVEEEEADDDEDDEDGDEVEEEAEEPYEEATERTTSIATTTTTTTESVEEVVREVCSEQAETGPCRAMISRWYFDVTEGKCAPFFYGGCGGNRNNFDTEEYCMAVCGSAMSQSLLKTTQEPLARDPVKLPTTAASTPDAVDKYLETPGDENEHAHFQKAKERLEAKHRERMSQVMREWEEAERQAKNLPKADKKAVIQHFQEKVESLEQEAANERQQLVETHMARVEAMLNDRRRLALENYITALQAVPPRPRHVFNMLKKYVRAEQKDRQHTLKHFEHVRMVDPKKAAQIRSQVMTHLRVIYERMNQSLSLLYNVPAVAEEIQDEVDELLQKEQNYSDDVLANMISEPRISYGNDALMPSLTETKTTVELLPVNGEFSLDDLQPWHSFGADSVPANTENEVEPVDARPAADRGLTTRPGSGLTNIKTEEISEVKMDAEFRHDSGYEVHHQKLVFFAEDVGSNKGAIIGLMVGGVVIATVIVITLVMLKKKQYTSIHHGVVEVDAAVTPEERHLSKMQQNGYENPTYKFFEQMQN
Butyrylcholinesterase (Rattus norvegicus), sequence (Q9JKC1 as listed by the source): as the sequence (Q9JKC1 whole entry) above

Compound | pIC50 (Butyrylcholinesterase) | pIC50 (Acetylcholinesterase [1]) | also measured
COc1ccc(C(C)N2CCOCC2)cc1OC(=O)N(C)C (stereo not given) | 6.57 | 4.63 | 
CCN(CC)Cc1ccc(OC(=O)N(C)C)c(OC)c1 | 7.46 | 6.96 | 
CCN(C)C(=O)Oc1cccc([C@H](C)N(C)C)c1 |  |  | inhibition [2]: inactive
COc1cc(C(C)N2CCOCC2)ccc1OC(=O)N(C)C (stereo not given) | 6.51 | 5.30 | 
COc1cc(C(C)N2CCCCC2)ccc1OC(=O)N(C)C (stereo not given) | 8.10 | 6.96 | Ratio IC50 [3]: 40; inhibition [2]: Active
CCN(CC)C(C)c1ccc(OC)c(OC(=O)N(C)C)c1 (stereo not given) | 6.89 | 5.56 | 
COc1cc(C(C)N2CCCC2)ccc1OC(=O)N(C)C (stereo not given) | 7.74 | 6.72 | 
CCN(CC)C(C)c1ccc(OC(=O)N(C)C)c(OC)c1 (stereo not given) | 7.20 | 6.62 | 
COc1cc(/C=C/C(=O)CC(=O)/C=C/c2ccc(O)c(OC)c2)ccc1O |  |  | inhibition [2]: Active
COc1ccc(CN2CCOCC2)cc1OC(=O)N(C)C | 6.92 | 4.68 | 
COc1cc(CN2CCCC2)ccc1OC(=O)N(C)C | 7.92 | 6.89 | 
CCN(CC)Cc1ccc(OC)c(OC(=O)N(C)C)c1 | 7.10 | 5.83 | 
COc1ccc(C(C)N2CCCCC2)cc1OC(=O)N(C)C (stereo not given) | 7.47 | 5.85 | 
COc1ccc2[nH]cc(CCNC(C)=O)c2c1 [MELATONIN] |  |  | pIC50 [4]: 5.72; inhibition (INH) [4]: Dose-dependent effect
COc1cc(CN2CCOCC2)ccc1OC(=O)N(C)C | 6.37 | 5.77 | 
COc1ccc(C(C)N2CCCC2)cc1OC(=O)N(C)C (stereo not given) | 7.09 | 5.72 | 
COc1ccc(CN2CCCCC2)cc1OC(=O)N(C)C | 8.00 | 6.18 | Ratio IC50 [3]: 40; inhibition [2]: Active
COc1cccc(CN2CCCCC2)c1OC(=O)N(C)C | 5.50 | 4.64 | 
COc1cc(CN2CCCCC2)ccc1OC(=O)N(C)C | 7.62 | 7.01 | Drug metabolism (Acetylcholinesterase [5]): metabolite_detected; Retention_time (Acetylcholinesterase [6]): 6.84 min; inhibition [2]: Active
COc1cc(CN2CCCCC2)ccc1O |  |  | Drug metabolism (Acetylcholinesterase [7]): metabolite_detected; Retention_time (Acetylcholinesterase [6]): 5.5 min; pIC50 [4]: 5.54; inhibition (INH) [4]: Dose-dependent effect; inhibition (INH) [8]: Active
COc1ccc(CN2CCCC2)cc1OC(=O)N(C)C | 7.54 | 5.54 | 
